This is an account of results in US10906938B2, “Cell epitopes and combination of cell epitopes for use in the immunotherapy of myeloma and other cancers” (Immatics Biotechnologies GmbH, priority 2015, dated 2021).

Format in all cases: cell-based, human
Test [1] has as its system PBMC obtained from MM patients. The experiment in a line: 12-day recall IFNγ ELISPOT with PBMC of MM patients. Conditions: for specific T-cell recognition, MM patients positive/tested / specific T-cell recognition, share of MM patients: 12-day recall IFNγ ELISPOT, PBMC of MM patients, HLA class I peptide. The method, then: PBMC from MM patients and HVs were cultured as described previously. In brief, for CD8^+ T-cell stimulation, PBMC were pulsed with 1 μg/ml per peptide and cultured for 12 days adding IL-4 and IL-7 on day 0 and 1 as well as IL-2 on day 3, 5, 7 and 9. HLA-A*02 (KLFEKVKEV) (SEQ ID NO. 231) and B*07 (KPSEKIQVL) (SEQ ID NO. 232) restricted control peptides derived from benign tissues (HV-exclusive HLA ligands) served as negative control. Peptide-stimulated PBMC were analyzed by ELISPOT assays on day 12. For CD4^+ T-cell stimulation, culture was performed as described for CD8^+ T cells except for 2 modifications: pulsing was carried out with 10 μg/ml of HLA class II peptide and no IL-4 or IL-7 was added.
IFNγ ELISPOT assays were carried out as described previously. In brief, 96-well nitrocellulose plates (Millipore) were coated with […] IFNγ mAb (Mabtech) and incubated over night at 4° C. Plates were blocked with 10% human serum for 2 h at 37° C. 2.5×10^5 cells/well of pre-stimulated PBMC were pulsed with 1 μg/ml (HLA class I) or 2.5 μg/ml (HLA class II) peptide and incubated for 24-26 h. Readout was performed according to manufacturer's instructions. PHA was used as positive control. HLA-A*02 (KLFEKVKEV) (SEQ ID NO. 231) and B*07 (KPSEKIQVL) (SEQ ID NO. 232) restricted control peptides derived from benign tissues (HV-exclusive HLA ligands) served as negative control. Spots were counted using an ImmunoSpot S5 analyzer (CTL). T cell responses were considered to be positive when >10 spots/well were counted and the mean spot count per well was at least 3-fold higher than the mean number of spots in the negative control wells (according to the cancer immunoguiding program (CIP) guidelines).

A further test relates to MM.1S cells. The experiment in a line: HLA class I ligand presentation upon carfilzomib treatment on MM.1S cells (LC-MS/MS). The arrangement: key to modulation upon carfilzomib-treatment 24 #1 / modulation upon carfilzomib-treatment 24 #2 / modulation upon carfilzomib-treatment 24 #3 / modulation upon carfilzomib-treatment 48 #1 / modulation upon carfilzomib-treatment 48 #2 / modulation upon carfilzomib-treatment 48 #3: −1: significantly down-modulated; 0: not signifcant/not detected; 1: significantly up-modulated. Conditions: MM.1S cells, vs mock-treated controls; for modulation upon carfilzomib-treatment 24 #1 / modulation upon carfilzomib-treatment 24 #2 / modulation upon carfilzomib-treatment 24 #3: 24 h after carfilzomib treatment (100 nM, 1 h); for modulation upon carfilzomib-treatment 24 #1 / modulation upon carfilzomib-treatment 48 #1: biological replicate #1; for modulation upon carfilzomib-treatment 24 #2 / modulation upon carfilzomib-treatment 48 #2: biological replicate #2; for modulation upon carfilzomib-treatment 24 #3 / modulation upon carfilzomib-treatment 48 #3: biological replicate #3; for modulation upon carfilzomib-treatment 48 #1 / modulation upon carfilzomib-treatment 48 #2 / modulation upon carfilzomib-treatment 48 #3: 48 h after carfilzomib treatment (100 nM, 1 h). Summed up:
(§1)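 MM.1S and U266 myeloma cells were pulsed with 100 nM carfilzomib for 1 h, washed and recultured 24 or 48 h; controls got 5% glucose vehicle. HLA class I ligands were immunopurified with W6/32 and analysed by nanoLC-MS/MS (CID, 5 technical replicates, 5% FDR, 8-12-mers). Modulation versus mock was scored as fold-change ≥4 with Benjamini-Hochberg-corrected significance.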

The subject of another test is U266 cells. The experiment in a line: HLA class I ligand presentation upon carfilzomib treatment on U266 cells (LC-MS/MS). The arrangement: key to modulation upon carfilzomib-treatment 24 #1 / modulation upon carfilzomib-treatment 24 #2 / modulation upon carfilzomib-treatment 24 #3 / modulation upon carfilzomib-treatment 48 #1 / modulation upon carfilzomib-treatment 48 #2 / modulation upon carfilzomib-treatment 48 #3: −1: significantly down-modulated; 0: not signifcant/not detected; 1: significantly up-modulated. Conditions: U266 cells, vs mock-treated controls; for modulation upon carfilzomib-treatment 24 #1 / modulation upon carfilzomib-treatment 24 #2 / modulation upon carfilzomib-treatment 24 #3: 24 h after carfilzomib treatment (100 nM, 1 h); for modulation upon carfilzomib-treatment 24 #1 / modulation upon carfilzomib-treatment 48 #1: biological replicate #1; for modulation upon carfilzomib-treatment 24 #2 / modulation upon carfilzomib-treatment 48 #2: biological replicate #2; for modulation upon carfilzomib-treatment 24 #3 / modulation upon carfilzomib-treatment 48 #3: biological replicate #3; for modulation upon carfilzomib-treatment 48 #1 / modulation upon carfilzomib-treatment 48 #2 / modulation upon carfilzomib-treatment 48 #3: 48 h after carfilzomib treatment (100 nM, 1 h). Summed up: as §1

Test [2] concerns CD8+ T cells from one healthy individual. The experiment in a line: aAPC priming and tetramer staining, CD8+ T cells of a healthy individual. The procedure:
(§2) For the generation of artificial antigen presenting cells (aAPC), 4×10^6 streptavidincoated polystyrene particles (Bangs Laboratories) per ml were resuspended in PBE (PBS/BSA/ETDA, Gibco/Sigma Aldrich/Lonza) containing 200 pM biotinylated MHCpeptide monomer and 20 nM anti-human biotinylated CD28 antibody and incubated at room temperature for 30 min. After washing, the aAPCs were stored at 4° C. prior to use. CD8^+ T cells from MM patients and HV were enriched by positive selection using magnetic cell sorting (Miltenyi Biotec). Stimulations were initiated in 96-well plates with 1×10^6 T cells plus 2×10^5 aAPCs in 200 μl T-cell medium complemented with 5 ng/ml human IL-12 (PromoKine). […] IL-2 (R&D Systems) were added on day 5. aAPC stimulation was repeated on day 10, for a total of 3 cycles.
(§3) The frequency of peptide-specific CD8^+ T cells was determined on a FACS Canto II cytometer (BD Bioscience) by staining with anti-CD8 (Biolegend) and HLA:peptidetetramer-PE as described previously. Staining with tetramers containing the CMV pp65 A*02 peptide NLVPMVATV (SEQ ID No. 236) served as positive control, tetramers containing irrelevant, non-primed A*02 restricted control peptides as negative controls. […]

The test system of test [3] is CD8+ T cells from one MM patient. The experiment in a line: aAPC priming and tetramer staining, CD8+ T cells of an MM patient. Conditions: T cells from an MM patient without previous T-cell reactivity for P2. The method, then:
as §2, §3

Consider “KAMEAASSL (listed as Homo sapiens) [SEQ ID NO: 82]”, for which, in test [1], the “specific T-cell recognition, MM patients positive/tested” value is 2/16 and the “specific T-cell recognition, share of MM patients” value is listed as 13%.

Turning to KPQPRPQTL, in the test on MM.1S cells, the “modulation upon carfilzomib-treatment 24 #1” value is recorded as 1, the “modulation upon carfilzomib-treatment 24 #2” value is reported as 1, the “modulation upon carfilzomib-treatment 24 #3” value is on record as 1 and the “modulation upon carfilzomib-treatment 48 #1” value is 0. In the test with MM.1S cells, the “modulation upon carfilzomib-treatment 48 #2” value is 0 and the “modulation upon carfilzomib-treatment 48 #3” value turned out to be 0. In the test with U266 cells, the “modulation upon carfilzomib-treatment 24 #1” value is on record as 0, the “modulation upon carfilzomib-treatment 24 #2” value is 0, the “modulation upon carfilzomib-treatment 24 #3” value is given as 0 and the “modulation upon carfilzomib-treatment 48 #1” value is 0. In addition, in the test on U266 cells, the “modulation upon carfilzomib-treatment 48 #2” value came out at 0 and the “modulation upon carfilzomib-treatment 48 #3” value stood at 0.

In the case of KPRPPQGL, in the test on MM.1S cells, the “modulation upon carfilzomib-treatment 24 #1” value is given as 1, the “modulation upon carfilzomib-treatment 24 #2” value was found to be 1, the “modulation upon carfilzomib-treatment 24 #3” value turned out to be 1 and the “modulation upon carfilzomib-treatment 48 #1” value stood at 1. In addition, in the test on MM.1S cells, the “modulation upon carfilzomib-treatment 48 #2” value is on record as 0 and the “modulation upon carfilzomib-treatment 48 #3” value stood at 0. Besides, in the test with U266 cells, the “modulation upon carfilzomib-treatment 24 #1” value is 0, the “modulation upon carfilzomib-treatment 24 #2” value is recorded as 0, the “modulation upon carfilzomib-treatment 24 #3” value was 0 and the “modulation upon carfilzomib-treatment 48 #1” value was found to be 1. For the same sequence, in the test on U266 cells, the “modulation upon carfilzomib-treatment 48 #2” value amounted to 1 and the “modulation upon carfilzomib-treatment 48 #3” value is 1.

As to “NSVIIVDKNGRLV (listed as Homo sapiens) [SEQ ID NO: 237]”, the “memory T-cell responses, MM patients positive/tested” value in test [1] (IFNγ ELISPOT, HLA class II peptide, MM patients) is on record as 2/5.

Regarding RPKAQPTTL, in the test on MM.1S cells, the “modulation upon carfilzomib-treatment 24 #1” value worked out at 0, the “modulation upon carfilzomib-treatment 24 #2” value is 0, the “modulation upon carfilzomib-treatment 24 #3” value came out at 1 and the “modulation upon carfilzomib-treatment 48 #1” value came to 0. Also, in the test on MM.1S cells, the “modulation upon carfilzomib-treatment 48 #2” value worked out at 0 and the “modulation upon carfilzomib-treatment 48 #3” value was 0. Moreover, in the test on U266 cells, the “modulation upon carfilzomib-treatment 24 #1” value turned out to be 0, the “modulation upon carfilzomib-treatment 24 #2” value was 0, the “modulation upon carfilzomib-treatment 24 #3” value is 0 and the “modulation upon carfilzomib-treatment 48 #1” value was determined as 0. Besides, in the test with U266 cells, the “modulation upon carfilzomib-treatment 48 #2” value is reported as 0 and the “modulation upon carfilzomib-treatment 48 #3” value turned out to be 0.

On to RPQLKGVVL, for which, in the test on MM.1S cells, the “modulation upon carfilzomib-treatment 24 #1” value is 0, the “modulation upon carfilzomib-treatment 24 #2” value was determined as 0, the “modulation upon carfilzomib-treatment 24 #3” value stood at 0 and the “modulation upon carfilzomib-treatment 48 #1” value is 0. Also, in the test on MM.1S cells, the “modulation upon carfilzomib-treatment 48 #2” value turned out to be 0 and the “modulation upon carfilzomib-treatment 48 #3” value is 0. Besides, in the test on U266 cells, the “modulation upon carfilzomib-treatment 24 #1” value turned out to be 0, the “modulation upon carfilzomib-treatment 24 #2” value stood at 0, the “modulation upon carfilzomib-treatment 24 #3” value came out at 0 and the “modulation upon carfilzomib-treatment 48 #1” value turned out to be 0. In the test with U266 cells, the “modulation upon carfilzomib-treatment 48 #2” value is listed as 0 and the “modulation upon carfilzomib-treatment 48 #3” value is reported as 0.

As for “SLLEQGLVEA (listed as Homo sapiens) [SEQ ID NO: 177]”, the “P2-tetramer positive CD8+ T cells after in vitro priming” value in test [2] (HV-derived CD8+ T cells, 3 cycles of aAPC priming) was 0.403%. Besides, the “tetramer-positive T-cell populations ex vivo” value in test [2] (ex vivo, without priming) is given as no more than 0.1%. Moreover, in test [1], the “specific T-cell recognition, MM patients positive/tested” value is given as 1/8 and the “specific T-cell recognition, share of MM patients” value came to 13%. The “P2-tetramer positive CD8+ T cells after priming” value in test [3] is recorded as 0.236%.

With TPAVGRLEV, in the test with MM.1S cells, the “modulation upon carfilzomib-treatment 24 #1” value is 0, the “modulation upon carfilzomib-treatment 24 #2” value was 0, the “modulation upon carfilzomib-treatment 24 #3” value was determined as 0 and the “modulation upon carfilzomib-treatment 48 #1” value is reported as 0. Besides, in the test with MM.1S cells, the “modulation upon carfilzomib-treatment 48 #2” value is 0 and the “modulation upon carfilzomib-treatment 48 #3” value is 0. For the same sequence, in the test with U266 cells, the “modulation upon carfilzomib-treatment 24 #1” value is on record as 0, the “modulation upon carfilzomib-treatment 24 #2” value was found to be 0, the “modulation upon carfilzomib-treatment 24 #3” value is 0 and the “modulation upon carfilzomib-treatment 48 #1” value was found to be 0. In the test on U266 cells, the “modulation upon carfilzomib-treatment 48 #2” value is given as 0 and the “modulation upon carfilzomib-treatment 48 #3” value stood at 0.

Take TPSSRPASL: in the test on MM.1S cells, the “modulation upon carfilzomib-treatment 24 #1” value turned out to be 1, the “modulation upon carfilzomib-treatment 24 #2” value is given as 1, the “modulation upon carfilzomib-treatment 24 #3” value was 0 and the “modulation upon carfilzomib-treatment 48 #1” value came out at 0. In addition, in the test with MM.1S cells, the “modulation upon carfilzomib-treatment 48 #2” value is 0 and the “modulation upon carfilzomib-treatment 48 #3” value amounted to 0. For the same sequence, in the test on U266 cells, the “modulation upon carfilzomib-treatment 24 #1” value is 0, the “modulation upon carfilzomib-treatment 24 #2” value is recorded as 0, the “modulation upon carfilzomib-treatment 24 #3” value was 0 and the “modulation upon carfilzomib-treatment 48 #1” value came out at 0. In the test on U266 cells, the “modulation upon carfilzomib-treatment 48 #2” value is listed as 0 and the “modulation upon carfilzomib-treatment 48 #3” value was 0.
